Experimental findings from ChEMBL document CHEMBL3639362, “Pyrrolopyrazoles, potent kinase inhibitors” (2013) are described below.

SMILES strings stand for the structures. pEC50: −log10 of the molar value.

In this experiment the target is Serine/threonine-protein kinase PAK 4 (Homo sapiens, UniProt O96013). As to the kind of experiment: Enzymatic Assay: The enzymatic activity of PAK4 KD was measured by its ability to catalyzed the transfer of a phosphate residue from a nucleoside triphosphate to an amino acid side chain of a commercially available peptide (amino acid sequence EVPRRKSLVGTPYWM).
Chain of Serine/threonine-protein kinase PAK 4 (O96013 whole entry): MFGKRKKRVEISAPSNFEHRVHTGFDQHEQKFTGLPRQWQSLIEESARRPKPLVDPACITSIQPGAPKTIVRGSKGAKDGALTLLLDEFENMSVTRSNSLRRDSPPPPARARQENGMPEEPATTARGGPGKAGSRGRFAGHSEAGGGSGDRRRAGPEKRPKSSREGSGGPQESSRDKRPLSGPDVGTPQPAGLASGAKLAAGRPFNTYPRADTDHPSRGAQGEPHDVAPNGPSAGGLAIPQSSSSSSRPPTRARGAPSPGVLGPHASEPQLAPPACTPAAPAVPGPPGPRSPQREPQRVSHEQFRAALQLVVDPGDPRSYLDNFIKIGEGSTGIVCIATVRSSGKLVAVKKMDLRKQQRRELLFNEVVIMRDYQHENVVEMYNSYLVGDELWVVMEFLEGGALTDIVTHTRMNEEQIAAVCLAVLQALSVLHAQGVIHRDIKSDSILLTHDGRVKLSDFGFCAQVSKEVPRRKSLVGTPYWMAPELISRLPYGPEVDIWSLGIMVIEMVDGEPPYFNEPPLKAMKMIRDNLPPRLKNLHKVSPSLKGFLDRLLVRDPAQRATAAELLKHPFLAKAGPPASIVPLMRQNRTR

What is called pEC50 is −log10 of the EC50, conventionally taken in molar units. Lower therefore signals a large EC50. In the case of `CC1(C)c2n[nH]c(Nc3nc(Cl)nc(N4CCC[C@H]4C(N)=O)n3)c2CN1C(=O)NC1C[C@@H]1c1ccccc1` (stereo partly specified), the pEC50 was below 5.40.
